We go through five compounds from EP4653444A1, “FUSED TRICYCLIC COMPOUND AS KINASE INHIBITOR” (Hangzhou Innogate Pharma Co., Ltd., priority 2023, dated 2024).

Where two headings read alike, the source gives them in different places.

In one assay the target is T1, FLT3 (Homo sapiens, UniProt P36888).
T1 sequence (P36888 27-993): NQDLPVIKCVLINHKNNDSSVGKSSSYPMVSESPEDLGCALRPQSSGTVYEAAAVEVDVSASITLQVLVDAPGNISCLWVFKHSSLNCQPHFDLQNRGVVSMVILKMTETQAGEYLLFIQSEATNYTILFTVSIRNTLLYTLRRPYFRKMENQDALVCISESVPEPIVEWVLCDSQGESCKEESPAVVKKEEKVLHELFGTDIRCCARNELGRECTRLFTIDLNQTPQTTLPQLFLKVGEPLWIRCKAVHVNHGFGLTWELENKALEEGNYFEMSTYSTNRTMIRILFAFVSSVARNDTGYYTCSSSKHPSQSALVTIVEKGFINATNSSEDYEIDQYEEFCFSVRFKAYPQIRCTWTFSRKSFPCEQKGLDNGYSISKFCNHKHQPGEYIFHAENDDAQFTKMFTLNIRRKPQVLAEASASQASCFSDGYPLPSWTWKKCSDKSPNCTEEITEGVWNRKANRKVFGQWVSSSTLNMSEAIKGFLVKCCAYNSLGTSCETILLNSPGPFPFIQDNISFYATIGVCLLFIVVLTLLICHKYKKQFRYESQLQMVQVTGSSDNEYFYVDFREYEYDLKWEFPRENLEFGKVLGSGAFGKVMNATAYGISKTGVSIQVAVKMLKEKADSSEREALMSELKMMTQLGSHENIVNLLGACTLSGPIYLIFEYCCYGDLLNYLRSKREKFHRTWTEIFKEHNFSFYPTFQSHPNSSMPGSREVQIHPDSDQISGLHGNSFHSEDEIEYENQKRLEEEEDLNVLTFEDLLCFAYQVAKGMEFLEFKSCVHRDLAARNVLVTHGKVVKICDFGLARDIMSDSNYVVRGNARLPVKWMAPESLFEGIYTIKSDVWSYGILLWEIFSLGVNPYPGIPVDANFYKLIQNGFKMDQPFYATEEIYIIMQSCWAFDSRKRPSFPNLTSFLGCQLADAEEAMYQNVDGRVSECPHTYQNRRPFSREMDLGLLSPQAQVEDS
Briefly: FLT3 kinase activity inhibition assay (Mobility shift assay). It counts as biochemical. The protocol: (§1) Testing compound inhibitory activity against FLT3 and AXL kinases using Mobility shift assay. Compounds were dissolved in 100% DMSO to prepare 10 mM stock solutions. Prepare 1× Kinase Buffer. Test compounds were serially diluted in 5-fold gradients, and 250 nL of 100× final concentration compounds were transferred to destination plate 3573 using an Echo 550 liquid handler. A 2.5× final concentration kinase solution was prepared in 1× Kinase Buffer. Then, 10 µL of the 2.5× kinase solution was added to both compound wells and positive control wells, while 10 µL of 1× Kinase Buffer was added to negative control wells. The plate was centrifuged at 1000 rpm for 30 seconds, mixed by orbital shaking, and incubated at room temperature for 10 minutes. A 5/3× final concentration mixture of ATP and Kinase Substrate 25 was prepared in 1× Kinase Buffer. The reaction was initiated by adding 15 µL of the 5/3× ATP/substrate mixture. The 384-well plate was centrifuged at 1000 rpm for 30 seconds, mixed by shaking, and incubated at room temperature for 120 minutes. The kinase reaction was terminated by adding 30 µL stop solution, followed by centrifugation at 1000 rpm for 30 seconds and mixing. Conversion rates were measured using a Caliper EZ Reader. %Inhibition = (Conversion%_max - Conversion%_sample)/(Conversion%_max - Conversion%_min) × 100. Where: Conversion%_sample: Conversion rate reading of test samples; Conversion%_min: Mean value of negative control wells (representing conversion rate without enzyme activity); Conversion%_max: Mean value of positive control wells (representing conversion rate without compound inhibition). Dose-response curves were plotted with log(concentration) as the X-axis and percentage inhibition as the Y-axis. Curve fitting was performed using GraphPad Prism 5 software with the "log(inhibitor) vs. response - Variable slope" model to derive IC50 values for each compound's enzyme inhibitory activity. The fitting formula was: Y = Bottom + (Top - Bottom)/(1 + 10^((LogIC50 - X) × HillSlope)).

The next assay concerns the target T2, AXL (Homo sapiens, UniProt P30530).
T2 sequence (P30530 26-894): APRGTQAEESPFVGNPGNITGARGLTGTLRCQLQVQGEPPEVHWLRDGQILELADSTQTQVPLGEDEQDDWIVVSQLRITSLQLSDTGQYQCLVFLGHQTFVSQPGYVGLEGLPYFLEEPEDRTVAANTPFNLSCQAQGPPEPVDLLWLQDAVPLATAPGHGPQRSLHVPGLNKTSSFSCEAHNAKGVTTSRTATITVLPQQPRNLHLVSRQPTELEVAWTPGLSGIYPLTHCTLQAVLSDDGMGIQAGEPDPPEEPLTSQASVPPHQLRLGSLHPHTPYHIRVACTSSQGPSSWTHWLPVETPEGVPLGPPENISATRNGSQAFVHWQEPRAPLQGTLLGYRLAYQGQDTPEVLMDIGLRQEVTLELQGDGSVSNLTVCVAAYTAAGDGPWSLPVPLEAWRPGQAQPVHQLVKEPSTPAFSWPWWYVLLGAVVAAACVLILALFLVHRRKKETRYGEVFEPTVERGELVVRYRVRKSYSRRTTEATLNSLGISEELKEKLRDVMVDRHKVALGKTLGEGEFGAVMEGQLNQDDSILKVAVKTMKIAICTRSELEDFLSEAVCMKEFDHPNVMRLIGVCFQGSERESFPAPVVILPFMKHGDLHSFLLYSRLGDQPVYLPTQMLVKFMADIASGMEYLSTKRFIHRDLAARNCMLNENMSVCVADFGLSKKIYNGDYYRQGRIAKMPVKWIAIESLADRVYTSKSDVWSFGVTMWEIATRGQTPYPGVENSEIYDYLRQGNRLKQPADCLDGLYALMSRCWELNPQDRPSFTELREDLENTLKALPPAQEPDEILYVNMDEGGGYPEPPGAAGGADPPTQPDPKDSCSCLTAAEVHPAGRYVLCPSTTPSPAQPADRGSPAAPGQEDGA
As to the kind of experiment: AXL kinase activity inhibition assay (Mobility shift assay). Type of assay: biochemical. The protocol: as §1, with “The 384-well plate was centrifuged at 1000 rpm for 30 seconds, mixed by shaking, and incubated at room temperature for 120 minutes. The kinase reaction was terminated by adding 30 µL stop solution, followed by centrifugation at 1000 rpm for 30 seconds and mixing.” left out, “Dose-response curves were plotted with log(concentration) as the X-axis and percentage inhibition as the Y-axis. Curve fitting was performed using GraphPad Prism 5 software with the "log(inhibitor) vs. response - Variable slope" model to derive IC50 values for each compound's enzyme inhibitory activity. The fitting formula was: Y = Bottom + (Top - Bottom)/(1 + 10^((LogIC50 - X) × HillSlope)).” left out

Take `COc1cc2c(cc1Nc1ncc(Cl)c(Nc3ccccc3S(=O)(=O)C(C)C)n1)OC[C@@H]1CN(C3CCOCC3)CCN21` [Compound C1S]: the IC50 was < 30 nM at FLT3 (Table 3, read-out: FLT3 (IC50)) and < 30 nM at AXL (Table 3, read-out: AXL (IC50)).

Turning to `COc1cc2c(cc1Nc1ncc(Cl)c(Nc3ccccc3S(=O)(=O)C(C)C)n1)OC[C@@H]1CN(C3CCN(C)CC3)CCN21` [Compound C2S], the half-maximal inhibitory concentration (IC50) on FLT3 and on AXL was < 30 nM each time.

Take `CNC(=O)c1ccccc1Nc1cc(Nc2cc3c(cc2OC)N2CCN(C4CCN(C)CC4)C[C@@H]2CO3)ncc1C(F)(F)F` [Compound D2R]: the IC50 at FLT3 was < 20 nM.

On to `CNC(=O)c1ccccc1Nc1cc(Nc2cc3c(cc2OC)N2CCN(C4CCN(C)CC4)C[C@H]2CO3)ncc1C(F)(F)F` [Compound D2S], for which, on FLT3 (Table 4, read-out: FLT3 (IC50)), the IC50 was < 50 nM.

Consider `CNC(=O)c1ccccc1Nc1cc(Nc2cc3c(cc2OC)N2CCN(C4CN(C)C4)C[C@H]2CO3)ncc1C(F)(F)F` [Compound D4S], for which, at FLT3 (Table 4, read-out: FLT3 (IC50)), the half-maximal inhibitory concentration (IC50) was < 70 nM.
